tested on: tHTT (total HTT protein); experiment: Time-resolved FRET assay, total huntingtin (tHTT) detection in cell lysates; assay type: cell-based, human; conditions: GEN020 hESCs (mutant 48 Q repeat allele), compounds added for 48 hours, TR-FRET on lysate; read-out: tHTT EC50
Experimental: Single-step detection of mutant huntingtin in animal and human tissues: a bioassay for Huntington's disease. Anal. […] Derivation of Huntington's disease-affected human embryonic stem cell lines, Stem Cells Dev. […] Cells were plated into 384-well collagen coated plates (10,000 cells per well) and left to adhere for 24 hours, test compounds were then added for 48 hours (37° C., 5% CO2), cells were then lysed and the lysate was transferred to a black 384-well assay plate. […] The donor/acceptor ratio between these signals indicated the relative quantities of mHTT and tHTT.

Row | Structure (SMILES) | EC50 [nM]
1 | Cc1cn2cc(NC(=O)c3cnc(N4CCC(N5CC[C@@H](F)C5)C4)cn3)cc(F)c2n1 (single isomer, unassigned) [Example 301] | 500 to 1000
2 | CNC[C@H]1CCN(c2cnc(C(=O)Nc3cn4cc(C)nc4c(C)n3)cn2)C1 [Example 101] | 100 to 500
3 | Cc1cn2cc(NC(=O)c3cnc(N4CC(F)C(N5CCCC5)C4)cn3)cc(F)c2n1 (single isomer, unassigned) [Example 118, N-(8-fluoro-2-methylimidazo[1,2-a]pyridin-6-yl)-5-((3'S,4′R)-4′-fluoro-[1,3′-bipyrrolidin]-1′-yl)pyrazine-2-carboxamide] | 1000 to 10000
4 | Cc1cn2cc(NC(=O)c3cnc(N4CC(CNC5CC5)C4)cn3)nc(C)c2n1 [Example 219] | 100 to 500
5 | Cc1cn2cc(NC(=O)c3cnc(N4CC(CNCC(F)F)C4)cn3)nc(C)c2n1 [Example 194] | 500 to 1000
6 | Cc1cn2cc(NC(=O)c3cnc(N4CC(F)(CNC5CC5)C4)cn3)cc(F)c2n1 [Example 247, 5-(3-((cyclopropylamino)methyl)-3-fluoroazetidin-1-yl)-N-(8-fluoro-2-methylimidazo[1,2-a]pyridin-6-yl)pyrazine-2-carboxamide] | 100 to 500
7 | CC[C@H]1CN(c2cnc(C(=O)Nc3cc(F)c4nc(C)cn4c3)cn2)CCN1 [Example 44] | 1000 to 10000
8 | Cc1cn2cc(NC(=O)c3cnc(N4CCC(NC(C)(C)C)C4)cn3)nc(C)c2n1 (stereo not shown) [Example 57] | 100 to 500
9 | Cc1cn2cc(NC(=O)c3cnc(N4CCC(NC(C)C)C4)cn3)nc(C)c2n1 (stereo not shown) [Example 56] | 100 to 500
10 | Cn1cc2cc(NC(=O)c3cnc(N4CC(CNC5(C)CC5)C4)cn3)cc(F)c2n1 [Example 295, N-(7-fluoro-2-methyl-2H-indazol-5-yl)-5-(3-(((1-methylcyclopropyl)amino)methyl)azetidin-1-yl)pyrazine-2-carboxamide] | 100 to 500
11 | Cc1cn2cc(NC(=O)c3cnc(N4CC(C5COCCN5)C4)cn3)cc(F)c2n1 (single isomer, unassigned) [Example 346] | 500 to 1000
12 | Cc1cn2cc(NC(=O)c3cnc(N4CC(C(C)NC5CC5)C4)cn3)nc(C)c2n1 (stereo not shown) [Example 203] | 500 to 1000
13 | CCNC1CN(c2cnc(C(=O)Nc3cc(F)c4nc(C)cn4c3)cn2)CC1F (stereo not shown) [Example 326] | 100 to 500
14 | CNC1CN(c2cnc(C(=O)Nc3cn4cc(C)nc4c(C)n3)cn2)CC1F (stereo not shown) [Example 89] | 1000 to 10000
15 | Cc1cn2cc(NC(=O)c3cnc(N4CC5CNCC5C4=O)cn3)cc(F)c2n1 (single isomer, unassigned) [Example 293] | 500 to 1000
16 | Cc1cn2cc(NC(=O)c3cnc(N4CCC(CN5CCCC5)C4)cn3)cc(F)c2n1 (stereo not shown) [Example 41] | 100 to 500
17 | Cc1cn2cc(NC(=O)c3cnc(N4CC[C@@H](NC5CC5)C4=O)cn3)cc(F)c2n1 [Example 348, (R)-5-(3-(cyclopropylamino)-2-oxopyrrolidin-1-yl)-N-(8-fluoro-2-methylimidazo[1,2-a]pyridin-6-yl)pyrazine-2-carboxamide] | 100 to 500
18 | Cc1cn2cc(NC(=O)c3cnc(N4CC5(CCN(C)CC5)C4)cn3)cc(F)c2n1 [Example 50] | 100 to 500
19 | CCN[C@@H]1CCN(c2cnc(C(=O)Nc3cn4cc(C)nc4c(C)n3)cn2)C1 [Example 73] | 100 to 500
20 | COc1nc(NC(=O)c2cnc(N3CC[C@@H](NCC4CC4)C3)cn2)cn2cc(C)nc12 [Example 267] | 100 to 500

Row | Structure (SMILES) | EC50 [nM]
21 | Cc1cn2cc(NC(=O)c3cnc(N4CCC(CNC5CC5)C4=O)cn3)cc(F)c2n1 (single isomer, unassigned) [Example 336] | 100 to 500
22 | Cc1cn2cc(NC(=O)c3cnc(N4CCC(NC5CC(F)(F)C5)C4)cn3)cc(F)c2n1 (stereo not shown) [Example 20] | 500 to 1000
23 | Cc1cn2cc(NC(=O)c3cnc(N4CCC(CN(C)C(C)C)C4)cn3)nc(C)c2n1 (single isomer, unassigned) [Example 155] | 500 to 1000
24 | Cc1cn2cc(NC(=O)c3cnc(N(C)C4CCNC5(CC5)C4)cn3)cc(F)c2n1 (single isomer, unassigned) [Example 319] | 100 to 500
25 | Cc1cn2cc(NC(=O)c3cnc(N4CCC(N5CC[C@@H](F)C5)C4)cn3)cc(F)c2n1 (single isomer, unassigned) [Example 302] | 500 to 1000
26 | Cc1cn2cc(NC(=O)c3cnc(O[C@@H]4CNC[C@@H]4F)cn3)cc(F)c2n1 [Example 366, N-(8-Fluoro-2-methylimidazo[1,2-a]pyridin-6-yl)-5-(((3R,4S)-4-fluoropyrrolidin-3-yl)oxy)pyrazine-2-carboxamide] | 1000 to 10000
27 | CCNC1CN(c2ncc(C(=O)Nc3cc(F)c4nc(C)cn4c3)cn2)CC1F (single isomer, unassigned) [Example 138] | 500 to 1000
28 | CNCC1CN(c2cnc(C(=O)Nc3cc(F)c4nc(C)oc4c3)cn2)C1 [Example 349, N-(4-fluoro-2-methylbenzo[d]oxazol-6-yl)-5-(3-((methylamino)methyl)azetidin-1-yl)pyrazine-2-carboxamide] | 100 to 500
29 | Cc1cn2cc(NC(=O)c3cnc(N4CC(CNC5CC5)C4)cn3)cc(F)c2n1 [Example 190, 5-(3-((cyclopropylamino)methyl)azetidin-1-yl)-N-(8-fluoro-2-methylimidazo[1,2-a]pyridin-6-yl)pyrazine-2-carboxamide] | < 100
30 | Cc1cn2cc(NC(=O)c3cnc(N4CCC(CNC5CC5)C4=O)cn3)cc(F)c2n1 (stereo not shown) [Example 316, 5-(3-((cyclopropylamino)methyl)-2-oxopyrrolidin-1-yl)-N-(8-fluoro-2-methylimidazo[1,2-a]pyridin-6-yl)pyrazine-2-carboxamide] | 100 to 500
31 | Cc1cn2cc(NC(=O)c3cnc(N4CC5(C4)CN(C4CC4)C5)cn3)cc(F)c2n1 [Example 10] | 1000 to 10000
32 | Cc1cn2cc(NC(=O)c3cnc(N4CC[C@H](CNC5CC5)C4)cn3)nc(C)c2n1 [Example 286, (R)-5-(3-((cyclopropylamino)methyl)pyrrolidin-1-yl)-N-(2,8-dimethylimidazo[1,2-a]pyrazin-6-yl)pyrazine-2-carboxamide] | 100 to 500
33 | Cc1cn2cc(NC(=O)c3cnc(N4CCC(CNC5CC5)C4)cn3)cc(F)c2n1 (single isomer, unassigned) [Example 148] | 100 to 500
34 | Cc1cn2cc(NC(=O)c3cnc(N(C)C4CCN(C)CC4)cn3)cc(F)c2n1 [Example 218] | 500 to 1000
35 | Cc1cn2cc(NC(=O)c3cnc(N4CCC(NC(C)(C)C)C4)cn3)cc(F)c2n1 (stereo not shown) [Example 43] | 100 to 500
36 | Cc1cn2cc(NC(=O)c3cnc(N4CCC(CNC(C)C)C4)cn3)cc(F)c2n1 (single isomer, unassigned) [Example 166] | 100 to 500
37 | COc1nc(NC(=O)c2cnc(N3CC(CN4CC(OC)C4)C3)cn2)cn2cc(C)nc12 [Example 359, 5-[3-[(3-Methoxyazetidin-1-yl)methyl]azetidin-1-yl]-N-(8-methoxy-2-methyl-imidazo[1,2-a]pyrazin-6-yl)pyrazine-2-carboxamide] | 100 to 500
38 | CCN[C@@H]1CCN(c2cnc(C(=O)Nc3cc(F)c4nc(C)cn4c3)cn2)C1 [Example 26] | < 100
39 | Cc1cn2cc(NC(=O)c3cnc(N4CC[C@@H](N5CCCC5)C4)cn3)cc(F)c2n1 [Example 81] | 100 to 500

same assay, conditions: read-out: tHTT EC50; GEN020 hESCs (mutant 48 Q repeat allele), compounds added for 48 hours, TR-FRET on lysate

Row | Structure (SMILES) | EC50 [nM]
40 | Cn1cc2cc(NC(=O)c3cnc(N4CC(CNCC(F)F)C4)cn3)cc(F)c2n1 [Example 323, 5-(3-(((2,2-difluoroethyl)amino)methyl)azetidin-1-yl)-N-(7-fluoro-2-methyl-2H-indazol-5-yl)pyrazine-2-carboxamide] | 500 to 1000

From patent US11806346B2, “HTT modulators for treating Huntington's disease” (CHDI Foundation, Inc., priority 2020, dated 2023)
